Data from patent US20080014614A1, “Labeling of rapamycin using rapamycin-specific methylases” (Wyeth, priority 2004, published 2008).

Test system: RapM methylase
Experiment: In vitro methylation of desmethyl-rapamycin substrates by recombinant RapM methylase crude extract, HPLC analysis
Assay type: biochemical, Streptomyces hygroscopicus
Settings: recombinant E. coli cell extract, SAM as methyl donor, phosphate buffer pH 7.5, HPLC chromatograms
Description: The RapI, RapM and RapQ proteins were then expressed in E. coli strain BL21(DE3) cells using the Novagen pET24 inducible plasmid expression vector. In this vector, cloned genes are expressed from a T7 promoter by T7 RNA polymerase, and expression is activated by IPTG addition.
For crude extracts of the cloned methylase proteins, 25 mL cultures of induced cells were collected by centrifugation and the pellets frozen. The pellets were resuspended in 10 mL 50 mM potassium phosphate buffer, pH 7.5, containing 1 mM β-mercaptoethanol. Thereafter, lysozyme was added to a final concentration of 100 μg/ml and Benzonase™ nuclease was added (1 μL/mL cells). Cells were sonicated for 1 to 2 min on ice and cell debris was removed by centrifugation at ˜30,000×g, 4° C. for 15 min. Supernatants were adjusted to ˜10% glycerol prior to freezing at −70° C.
Approximately 65 μL of crude methylase extract was added to a reaction containing 3 μL of 1 mg/mL 7-desmethyl- rapamycin (7-dmr) solution, 5 μL of 4 mM SAM, 4 μL of 0.1 M MgSO4, and 23 μL of a 0.5 M phosphate buffer, adjusted to pH 7.5. Methylation reactions using the recombinant cell extracts were carried out as described above, except that 50 μL of extract and 38 μL of buffer were used.

Row | Molecule | Conversion of the desmethyl-rapamycin substrate to rapamycin by RapM methylase (substrate specificity)
1 | 32-O-desmethyl-rapamycin [32-dmr] | did not modify
2 | CO[C@@H]1C[C@H](C[C@@H](C)[C@@H]2CC(=O)[C@H](C)/C=C(\C)[C@@H](O)[C@@H](OC)C(=O)[C@H](C)C[C@H](C)\C=C/C=C/C=C(\C)[C@@H](O)C[C@@H]3CC[C@@H](C)[C@@](O)(O3)C(=O)C(=O)N3CCCC[C@H]3C(=O)O2)CC[C@H]1O [7-dmr, 7-O-desmethyl-rapamycin] | generated rapamycin
